According to patent publication US20210101881A1 (Ancureall Pharmaceutical (Shanghai) Co., Ltd., priority 2018, published 2021):
Like-named read-outs stand apart in the source and are kept apart here.

Experiments:
[1] = tested on: MOLM13 cells; test: Growth inhibition of CDK9-positive cell line MOLM13 in vitro (CCK8/MTT assay); format: cell-based, human; details: Homo sapiens
[2] = tested on: AGS; test: Growth inhibition of CDK9-positive tumor cell line in vitro; format: cell-based; details: Human stomach cancer, read-out: Inhibitory activity (IC50) on growth in vitro, AGS
Method: (§1) Measurement of the Inhibitory Activity of the Present Compound on the Growth of Various Types of CDK9-Positive Tumor Cell Lines In Vitro
(§2) The inventors selected representative CDK9-positive tumor cell lines for further determination of the compound activity. All cell lines used came from ATCC, JCRB, DSMZ and Chinese Academy of Sciences Cell Bank (ZK). Cell culture condition and method were based on the requirements of each cell line. No more than 3 passages were carried out in each culture in vitro. Monoclonal purification and STR identification of the cell line were conducted if necessary.

[3] = tested on: KG-1; test: as above; format: cell-based; details: Human acute myeloid leukemia, read-out: Inhibitory activity (IC50) on growth in vitro, KG-1
Method: as §1, §2

[4] = tested on: NCI-N87; test: as above; format: cell-based; details: Human stomach cancer, read-out: Inhibitory activity (IC50) on growth in vitro, NCI-N87
Method: as §1, §2

[5] = tested on: NCI-H1975; test: as above; format: cell-based; details: Human lung cancer, read-out: Inhibitory activity (IC50) on growth in vitro, NCI-H1975
Method: as §1, §2

[6] = tested on: Colo205; test: as above; format: cell-based; details: COLO 205, Human intestinal cancer, read-out: Inhibitory activity (IC50) on growth in vitro, Colo205
Method: as §1, §2

[7] = tested on: Pfeiffer; test: as above; format: cell-based; details: Human B lymphocyte tumor, read-out: Inhibitory activity (IC50) on growth in vitro, Pfeiffer
Method: as §1, §2

[8] = tested on: Kasumi-1; test: as above; format: cell-based; details: Human acute myeloid leukemia, read-out: Inhibitory activity (IC50) on growth in vitro, Kasumi-1
Method: as §1, §2

[9] = tested on: CAL-120; test: as above; format: cell-based; details: Human breast cancer, read-out: Inhibitory activity (IC50) on growth in vitro, CAL-120
Method: as §1, §2

[10] = tested on: NCI-H1703; test: as above; format: cell-based; details: Human lung cancer, read-out: Inhibitory activity (IC50) on growth in vitro, NCI-H1703
Method: as §1, §2

[11] = tested on: NCI-H1781; test: as above; format: cell-based; details: Human lung cancer, read-out: Inhibitory activity (IC50) on growth in vitro, NCI-H1781
Method: as §1, §2

[12] = tested on: MFM-223; test: as above; format: cell-based; details: Human breast cancer, read-out: Inhibitory activity (IC50) on growth in vitro, MFM-223
Method: as §1, §2

[13] = tested on: A375; test: as above; format: cell-based; details: A-375, Human melanoma, read-out: Inhibitory activity (IC50) on growth in vitro, A375
Method: as §1, §2

[14] = tested on: KYSE70; test: as above; format: cell-based; details: KYSE-70, Human esophageal cancer, read-out: Inhibitory activity (IC50) on growth in vitro, KYSE70
Method: as §1, §2

[15] = biological target: T1, CDK9/CyclinK kinase (Homo sapiens, UniProt P50750); test: CDK9 protein kinase activity, ADP-Glo CDK9/CyclinK kinase detection kit; format: biochemical; details: read-out: IC50 of the compound for inhibiting CDK9 protein kinase activity, CDK9/CyclinK kinase
T1 construct: purchased Promega Corporation V4105
T1 sequence (P50750 whole entry): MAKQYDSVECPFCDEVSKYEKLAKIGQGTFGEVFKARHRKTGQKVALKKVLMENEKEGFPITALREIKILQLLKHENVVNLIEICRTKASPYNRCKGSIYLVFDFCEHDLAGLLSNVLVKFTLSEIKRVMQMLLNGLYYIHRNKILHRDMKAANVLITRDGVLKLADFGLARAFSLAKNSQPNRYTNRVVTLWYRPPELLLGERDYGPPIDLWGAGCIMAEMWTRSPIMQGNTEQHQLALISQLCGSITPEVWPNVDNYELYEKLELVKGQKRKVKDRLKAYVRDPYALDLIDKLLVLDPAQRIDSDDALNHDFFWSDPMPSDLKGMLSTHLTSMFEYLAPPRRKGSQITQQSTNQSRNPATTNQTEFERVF
T1 sequence (O75909 whole entry partner): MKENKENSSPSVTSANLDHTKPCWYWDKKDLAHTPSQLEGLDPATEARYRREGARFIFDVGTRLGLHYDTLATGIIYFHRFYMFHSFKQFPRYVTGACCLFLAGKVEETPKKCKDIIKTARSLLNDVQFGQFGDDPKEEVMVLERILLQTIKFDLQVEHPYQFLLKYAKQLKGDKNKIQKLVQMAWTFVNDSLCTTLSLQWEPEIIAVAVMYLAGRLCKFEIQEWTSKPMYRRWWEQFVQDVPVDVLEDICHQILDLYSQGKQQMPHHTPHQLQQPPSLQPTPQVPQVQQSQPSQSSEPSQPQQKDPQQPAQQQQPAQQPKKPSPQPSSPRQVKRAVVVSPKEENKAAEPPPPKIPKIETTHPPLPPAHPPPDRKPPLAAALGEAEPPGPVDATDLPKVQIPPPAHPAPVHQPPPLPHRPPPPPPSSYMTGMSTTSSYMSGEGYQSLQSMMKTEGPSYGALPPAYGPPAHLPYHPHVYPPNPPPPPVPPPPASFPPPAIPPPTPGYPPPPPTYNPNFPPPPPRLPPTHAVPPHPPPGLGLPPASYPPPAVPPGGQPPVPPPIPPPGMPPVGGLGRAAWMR
Method: Measurement of CDK9 Protein Kinase Activity
The present compound was dissolved in DMSO (Sigma Aldrich), and the initial concentration of the compound was 1000 nM. A two-fold serial dilution was carried out. The specific operation of CDK9 kinase activity determination was carried out according to the ADP-Go™ CDK9/CyclinK kinase detection experimental procedure. […] Each test sample was tested in duplicate, and the test was repeated once. The inhibitory activity (IC50) of the compound on CDK9 protein kinase was calculated from the dose-inhibition curve of the compound.

[16] = tested on: AN3-CA; test: Growth inhibition of CDK9-positive tumor cell line in vitro; format: cell-based; details: Human endometrial cancer, read-out: Inhibitory activity (IC50) on growth in vitro, AN3-CA
Text: Test Example 3. Measurement of the Inhibitory Activity of the Present Compound on the Growth of Various Types of CDK9-Positive Tumor Cell Lines In Vitro
as §2, with “Tumor cell line is an effective cell model for studying the inhibitory activity of a drug on tumor growth in vitro. The” for “The”
Drug treatment, MTT assay and IC50 calculation were performed in accordance with Test Example 1.

[17] = tested on: MDA-MB-231; test: as above; format: cell-based; details: Human breast cancer, read-out: Inhibitory activity (IC50) on growth in vitro, MDA-MB-231
Method: as §1, §2

[18] = tested on: A549; test: as above; format: cell-based, Human
Method: as §1, §2

[19] = MOLM-13, MOLM13 cells, cultured 3 to 6 days, CCK8, read-out: IC50 of the compound for inhibiting cell growth, MOLM13 cells
[20] = Human lung cancer, A549, read-out: Inhibitory activity (IC50) on growth in vitro, A549

Structure (SMILES)	IC50 [1, 19] [nM]	IC50 [2] [nM]	IC50 [3] [nM]	IC50 [4] [nM]	IC50 [5] [nM]	IC50 [6] [nM]	IC50 [7] [nM]	IC50 [8] [nM]	IC50 [9] [nM]	IC50 [10] [nM]	IC50 [11] [nM]	IC50 [12] [nM]	IC50 [13] [nM]	IC50 [14] [nM]	IC50 [15] [nM]	IC50 [16] [nM]	IC50 [17] [nM]	IC50 [18, 20] [nM]	IC50 ([1]; MOLM-13, read-out: IC50 of the compound for inhibiting cell growth, MOLM13 cells) [nM]	IC50 ([18]; Homo sapiens, A549, read-out: Inhibitory activity (IC50) on growth in vitro, A549) [nM]
Cc1cc(Nc2ncc(Cl)c(-n3cc(C(N)=O)c4ccccc43)n2)ccc1N1CCN(C(C)C)CC1 [Compound 60, 1-{5-chloro-2-[4-(4-isopropyl-piperazin-1-yl)-3-methyl-phenylamino]-pyrimidin-4-yl}-1H-indole-3-carboxamide]	< 1	100 to 1000	10 to 100	100 to 1000	100 to 1000	100 to 1000	10 to 100	1 to 10	1 to 10	10 to 100	10 to 100	10 to 100	100 to 1000	100 to 1000	1 to 10	–	–	–	–	–
NC(=O)c1cn(-c2nc(Nc3cccc(N4CCN(C5CCOCC5)CC4)c3)ncc2F)c2ccccc12 [Compound 140, 1-(5-fluoro-2-{3-[4-(tetrahydro-pyran-4-yl)-piperazin-1-yl]-phenylamino}-pyrimidin-4-yl)-1H-indole-3-carboxamide]	< 1	1 to 10	< 1	1 to 10	1 to 10	1 to 10	< 1	1 to 10	< 1	< 1	< 1	< 1	1 to 10	1 to 10	–	< 1	< 1	1 to 10	–	–
CC(C)N1CCN(c2cccc(Nc3ncc(F)c(-n4cc(C(N)=O)c5ccccc54)n3)c2)CC1 [Compound 144, 1-{5-fluoro-2-[3-(4-isopropyl-piperazin-1-yl)-phenylamino]-pyrimidin-4-yl}-1H-indole-3-carboxamide]	< 1	1 to 10	< 1	1 to 10	1 to 10	1 to 10	< 1	< 1	< 1	< 1	< 1	< 1	1 to 10	1 to 10	–	< 1	< 1	1 to 10	–	–
CCN1CCN(c2cccc(Nc3ncc(F)c(-n4cc(C(N)=O)c5cc(OC)ccc54)n3)c2)CC1 [Compound 152, 1-{2-[3-(4-ethyl-piperazin-1-yl)-phenylamino]-5-fluoro-pyrimidin-4-yl}-5-methoxy-1H-indole-3-carboxamide]	–	1 to 10	1 to 10	1 to 10	1 to 10	1 to 10	< 1	1 to 10	< 1	< 1	< 1	< 1	1 to 10	1 to 10	< 1	< 1	< 1	–	< 1	1 to 10
CCN1CCN(c2cccc(Nc3ncc(F)c(-n4cc(C(N)=O)c5cc(F)ccc54)n3)c2)CC1 [Compound 161, 1-{2-[3-(4-ethyl-piperazin-1-yl)-phenylamino]-5-fluoro-pyrimidin-4-yl}-5-fluoro-1H-indole-3-carboxamide]	< 1	1 to 10	1 to 10	1 to 10	1 to 10	1 to 10	< 1	1 to 10	< 1	< 1	< 1	< 1	1 to 10	1 to 10	< 1	–	< 1	1 to 10	–	–
